Our source for the T/C values is PubChem BioAssay AID248 (DTP/NCI, 2004).

Where “and” joins values, the source holds several entries; their conditions need not be identical. Equal entries are not always repeated. Toxic doses and inconclusive results are not listed.

The test system of the experiment is L1210 leukemia ip in BDF1 mice, survival T/C. The experiment can be described thus: NCI In Vivo Anticancer Drug Screen. Data for tumor model L1210 Leukemia (intraperitoneal) in B6D2F1 (BDF1) mice. The note with it: endpoint: mean survival time, higher = longer survival. The gist of the method: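 Antitumor effect is assessed in tumor-bearing animals. Survival in the compound arm is compared with a vehicle-dosed control arm and expressed as their quotient.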

Setting [1] is: dose: 3.12 mg/kg/injection, schedule: Q04DX003 (ip), vehicle: saline with Tween-80.
Where [2] appears, read: dose: 100.0 mg/kg/injection, schedule: Q01DX009 (ip), vehicle: Klucel (hydroxypropylcellulose) (HPC).
The mark [3] stands for this setting: dose: 100.0 mg/kg/injection, schedule: Q04DX003 (ip), vehicle: Klucel (hydroxypropylcellulose) (HPC).
[4] abbreviates: dose: 200.0 mg/kg/injection, schedule: Q01DX009 (ip), vehicle: Klucel (hydroxypropylcellulose) (HPC).
Setting [5] is: dose: 200.0 mg/kg/injection, schedule: Q04DX003 (ip), vehicle: Klucel (hydroxypropylcellulose) (HPC).
[6] abbreviates: dose: 400.0 mg/kg/injection, schedule: Q04DX003 (ip), vehicle: Klucel (hydroxypropylcellulose) (HPC).
The mark [7] stands for this setting: dose: 50.0 mg/kg/injection, schedule: Q01DX009 (ip), vehicle: Klucel (hydroxypropylcellulose) (HPC).

As for `O=C(O)C1CCCC[N-]1.O=C(O)C1CCCC[N-]1.O=C(O)C1CCCC[N-]1.O=C(O)C1CCCC[N-]1.[Cl][Rh][Cl]` (configuration not stated), the T/C runs as follows: (dose: 12.5 mg/kg/injection, schedule: Q01DX008 (ip), vehicle: water) 98 % of control; (dose: 25.0 mg/kg/injection, schedule: Q01DX008 (ip), vehicle: water) 98 % of control; (dose: 50.0 mg/kg/injection, schedule: Q01DX008 (ip), vehicle: water) 103 % of control; (dose: 100.0 mg/kg/injection, schedule: Q01DX008 (ip), vehicle: water) 97 % of control; (dose: 100.0 mg/kg/injection, schedule: Q01DX009 (ip), vehicle: saline) 93 % of control; (dose: 100.0 mg/kg/injection, schedule: Q04DX003 (ip), vehicle: saline) 102 % of control. For the same molecule, the T/C (dose: 200.0 mg/kg/injection, schedule: Q04DX003 (ip), vehicle: saline) is 100 % of control and the T/C (dose: 400.0 mg/kg/injection, schedule: Q04DX003 (ip), vehicle: saline) is 96 % of control.
As to `O=C(NCCN1CC1)C(=O)NCCN1CC1`, the T/C by setting is: (dose: 1.7 mg/kg/injection, schedule: Q04DX003 (ip), vehicle: Klucel (hydroxypropylcellulose) (HPC)) 173 % of control; (dose: 2.6 mg/kg/injection, schedule: Q04DX003 (ip), vehicle: Klucel (hydroxypropylcellulose) (HPC)) 153 % of control and 186 % of control; (dose: 3.12 mg/kg/injection, schedule: Q04DX003 (ip), vehicle: Klucel (hydroxypropylcellulose) (HPC)) 187 % of control; under setting [1], 179 % of control; (dose: 4.0 mg/kg/injection, schedule: Q04DX003 (ip), vehicle: Klucel (hydroxypropylcellulose) (HPC)) 207 % of control; (dose: 6.0 mg/kg/injection, schedule: Q04DX003 (ip), vehicle: Klucel (hydroxypropylcellulose) (HPC)) 95 % of control. The T/C runs as follows: (dose: 6.25 mg/kg/injection, schedule: Q04DX003 (ip), vehicle: Klucel (hydroxypropylcellulose) (HPC)) 258 % of control; (dose: 12.5 mg/kg/injection, schedule: Q04DX003 (ip), vehicle: Klucel (hydroxypropylcellulose) (HPC)) 122 % of control.
Regarding `CCCCCCCN(CCCCCCC)CC(O)c1c2ccccc2cc2c1ccc1ccccc12` (configuration not stated), the T/C was 91 % of control under setting [2]; 101 % of control under setting [3]; 104 % of control under setting [4]; 93 % of control under setting [5]; 93 % of control under setting [6].
`C1CCC(C2=NC3CCCCC3SC2)CC1` (configuration not stated): the T/C was 103 % of control (dose: 100.0 mg/kg/injection, schedule: Q04DX002 (sc), vehicle: olive oil, sesame oil, peanut oil); 107 % of control (dose: 200.0 mg/kg/injection, schedule: Q04DX002 (sc), vehicle: olive oil, sesame oil, peanut oil); 96 % of control (dose: 400.0 mg/kg/injection, schedule: Q04DX002 (sc), vehicle: olive oil, sesame oil, peanut oil).
For the molecule `O=C(CCN1C(=O)CCC1=O)NCCc1ccccc1`, the T/C reads like this: (dose: 100.0 mg/kg/injection, schedule: Q01DX009 (ip), vehicle: saline with Tween-80) 97 % of control; (dose: 200.0 mg/kg/injection, schedule: Q01DX009 (ip), vehicle: saline with Tween-80) 98 % of control; (dose: 400.0 mg/kg/injection, schedule: Q01DX009 (ip), vehicle: saline with Tween-80) 101 % of control.
`CC(=O)Nc1ccc(C)c(NC(C)=O)c1`: the T/C was 96 % of control under setting [3], 96 % of control under setting [5] and 96 % of control under setting [6].
As to `NC(=Nc1ccc(N=C(N)N[N+](=O)[O-])cc1)N[N+](=O)[O-]`, the T/C is 107 % of control (dose: 25.0 mg/kg/injection, schedule: Q04DX002 (ip), vehicle: Klucel (hydroxypropylcellulose) (HPC)); 96 % of control (dose: 50.0 mg/kg/injection, schedule: Q04DX002 (ip), vehicle: Klucel (hydroxypropylcellulose) (HPC)); 96 % of control (dose: 100.0 mg/kg/injection, schedule: Q04DX002 (ip), vehicle: Klucel (hydroxypropylcellulose) (HPC)).
With `CCOc1ccc2[nH]c(=S)sc2c1`, the T/C is 93 % of control under setting [7]; 102 % of control under setting [2]; 105 % of control under setting [3]; 86 % of control under setting [4]; 89 % of control under setting [5]; 100 % of control under setting [6].
In the case of `CC(C)CC([NH-])C(=O)O.CC(C)CC([NH-])C(=O)O.CC(C)CC([NH-])C(=O)O.[Co+3]` (configuration not stated), the T/C is 106 % of control (dose: 12.5 mg/kg/injection, schedule: Q01DX009 (ip), vehicle: water); 95 % of control (dose: 25.0 mg/kg/injection, schedule: Q01DX009 (ip), vehicle: water); 98 % of control and 104 % of control (dose: 50.0 mg/kg/injection, schedule: Q01DX009 (ip), vehicle: water); 117 % of control (dose: 100.0 mg/kg/injection, schedule: Q01DX009 (ip), vehicle: water); 107 % of control and 98 % of control (dose: 100.0 mg/kg/injection, schedule: Q04DX003 (ip), vehicle: water); 111 % of control (dose: 200.0 mg/kg/injection, schedule: Q01DX009 (ip), vehicle: water). Besides, the T/C is 110 % of control and 112 % of control (dose: 200.0 mg/kg/injection, schedule: Q04DX003 (ip), vehicle: water); 102 % of control (dose: 400.0 mg/kg/injection, schedule: Q04DX003 (ip), vehicle: water).
Consider `N#CCNC(=O)c1ccccc1`, for which the T/C was 101 % of control (dose: 12.5 mg/kg/injection, schedule: Q01DX009 (ip), vehicle: Klucel (hydroxypropylcellulose) (HPC)); 104 % of control (dose: 25.0 mg/kg/injection, schedule: Q01DX009 (ip), vehicle: Klucel (hydroxypropylcellulose) (HPC)); 98 % of control (dose: 25.0 mg/kg/injection, schedule: Q04DX003 (ip), vehicle: Klucel (hydroxypropylcellulose) (HPC)); 102 % of control under setting [7]; 98 % of control (dose: 50.0 mg/kg/injection, schedule: Q04DX003 (ip), vehicle: Klucel (hydroxypropylcellulose) (HPC)).
Consider `CCOCCOCCOC(C)Oc1ccc(C(=O)OC)cc1` (configuration not stated), for which the T/C is 99 % of control (dose: 100.0 mg/kg/injection, schedule: Q04DX002 (ip), vehicle: saline); 96 % of control (dose: 200.0 mg/kg/injection, schedule: Q04DX002 (ip), vehicle: saline); 89 % of control (dose: 400.0 mg/kg/injection, schedule: Q04DX002 (ip), vehicle: saline).
On to `COc1cccc(C2N(Cc3ccc(N(CCCl)CCCl)cc3C)CCCN2Cc2ccc(N(CCCl)CCCl)cc2C)c1O`, for which the T/C reads like this: (dose: 50.0 mg/kg/injection, schedule: Q01DX001 (ip), vehicle: carboxymethylcellulose (CMC)) 116 % of control; (dose: 100.0 mg/kg/injection, schedule: Q01DX001 (ip), vehicle: carboxymethylcellulose (CMC)) 120 % of control; (dose: 200.0 mg/kg/injection, schedule: Q01DX001 (ip), vehicle: carboxymethylcellulose (CMC)) 100 % of control.
Take `CCCCOP(=O)(OCCCC)Oc1ccc2ccccc2c1`: the T/C (dose: 50.0 mg/kg/injection, schedule: Q01DX009 (ip), vehicle: other) is 97 % of control and 88 % of control; the T/C (dose: 100.0 mg/kg/injection, schedule: Q01DX009 (ip), vehicle: other) was 94 % of control; the T/C (dose: 100.0 mg/kg/injection, schedule: Q04DX002 (ip), vehicle: other) was 94 % of control and 96 % of control; the T/C (dose: 100.0 mg/kg/injection, schedule: Q04DX003 (ip), vehicle: carboxymethylcellulose (CMC)) is 102 % of control; the T/C (dose: 200.0 mg/kg/injection, schedule: Q01DX009 (ip), vehicle: other) was 100 % of control and 102 % of control; the T/C (dose: 200.0 mg/kg/injection, schedule: Q04DX002 (ip), vehicle: other) was 96 % of control and 92 % of control. In addition, the T/C was 100 % of control (dose: 200.0 mg/kg/injection, schedule: Q04DX003 (ip), vehicle: carboxymethylcellulose (CMC)); 94 % of control and 96 % of control (dose: 400.0 mg/kg/injection, schedule: Q04DX002 (ip), vehicle: other); 97 % of control (dose: 400.0 mg/kg/injection, schedule: Q04DX003 (ip), vehicle: carboxymethylcellulose (CMC)).
Regarding `O=C1O/C(=C/Br)C=C1Br`, the T/C by setting is: under setting [1], 95 % of control; (dose: 6.25 mg/kg/injection, schedule: Q04DX003 (ip), vehicle: saline with Tween-80) 92 % of control; (dose: 12.5 mg/kg/injection, schedule: Q04DX003 (ip), vehicle: saline with Tween-80) 92 % of control; (dose: 12.5 mg/kg/injection, schedule: Q04DX003 (ip), vehicle: saline) 100 % of control; (dose: 25.0 mg/kg/injection, schedule: Q04DX003 (ip), vehicle: saline) 97 % of control.
